“Also recorded” adds a separate entry of the source.
How the values were obtained:
[1] = target: T1, Aβ (1-40) peptide aggregation / fibril formation (Homo sapiens, UniProt P05067); assay: TIRFM study of inhibition of Aβ fibril formation; type: biochemical; conditions: for inhibition of Aβ peptide aggregation and fibril growth: TIRFM, ThT dye excited at 445 nm
T1 construct: Aβ(1-40) fibrils prepared from Aβ40 with seed incubated at 37° C. for an hour in buffer
Text: These images were obtained by an addition of ThT dye excited at 445 nm.
The panels below show the images of seed only and Aβ fibril formation without the carbazole-based fluorophore for comparison. These images were obtained by an addition of ThT dye excited at 445 nm.
A novel series of water-soluble carbazole-based fluorophores has been designed and developed. […] Upon binding with Aβ peptides, there is about 8- to about 82-fold increase in fluorescence intensity concomitant with the substantial blue shifts (Δλ=14-22 nm) in the emission spectra of the fluorophores (FIG. 2A-2H). […] (e.g. Ffibril/FSLOH=81.5 vs. Fpeptide/FSLOH=6.3). Because of such strong increase in fluorescence, the signal-to-noise ratio is so high that imaging of single fibrils is possible. (FIG. 3A-3C) Compared to common commercial labeling dyes for Aβ such as Thioflavin-T and Congo Red, the carbazole-based fluorophores of the present invention provide an advantage of a wide range of excitation and emission tuning in visible to infra-red region (FIG. 4A-4B). Some of these molecules, e.g., SAM and SAOH, even emit at ˜[…] (FIG. 5A-5B), which can potentially be used for near infra-red fluorescence imaging. In addition to fluorescence titration, the binding of Aβ peptide and fibril with the carbazole-based fluorophores of the present invention were further confirmed by circular dichroism spectroscopy (FIG. 6A-6B), and electrospray ionization-mass spectrometry (ESI-MS). Total Internal Reflection Fluorescence Microscope (TIRFM) technique developed by us was used to investigate the inhibition effects of these functional fluorophores on Aβ fibril formation (FIG. 7A-7F). […] Such inhibitory effect was further confirmed by Transmission Electron Microscopy (TEM) study (FIG. 8A-8B).
The inhibitory effect of the carbazole-based fluorophores of the present invention on Aβ fibril growth was further investigated by measuring the (average) length of the Aβ fibrils formed after incubation of the Aβ monomers for 60 min with additions of SLOH at different time points during this period (FIG. 9A-9B). Parallel experiments conducted without any addition of SLOH were used as controls.
Total Internal Reflection Fluorescence Microscope (TIRFM) technique developed was used to investigate the inhibition effects of these functional fluorophores on Aβ (1-40) fibril formation (FIG. 17).

SH-SY5Y neuronal cell [2] = assay: MTT reduction assay, cytotoxicity
Description: Human neuroblastoma SH-SY5Y neuronal cells were incubated with different concentrations of SLCOOH-conjugated SiO2@Fe3O4 nanoparticles at 37° C. for 24 h.

[3] = tested on: primary cortical neural cells; assay: Protection from Aβ-induced cytotoxicity; type: cell-based; conditions: Aβ monomer, oligomers and fibrils
Text: (§1) The reactive oxygen species (ROS) induced by the Aβ toxicity causes much damage in AD.

[4] = tested on: ROS in primary cortical cells; assay: Reduction of ROS induced by Aβ species; type: cell-based
Text: as §1

[5] = Blood-brain barrier penetration after tail vein injection; type: in vivo; conditions: mice
Text: (§2) However, in order for the observed neuroprotective effect to be clinically useful, these molecules need to be able to pass through the blood-brain barrier.

Aβ plaques = assay: Aβ plaque targeting in brain, co-stained with ThT or Aβ antibody; type: in vivo, transgenic mice; conditions: brain slides co-stained with ThT or Aβ antibody with DAB stain
Text: as §2
(A) Differential Interference Contrast (DIC) image of the brain slice of a 12-month-old APP/PS1 Tg mouse. (B) Histological staining of the brain slice with SLCOOH-conjugated SiO2@Fe3O4 nanoparticles (λex=500 nm, λem=620-680 nm). (C) ThT fluorescence images of the brain slice captured with λex=405 nm, λem=460-490 nm (D) The superimposed images of (B) and (C).

[6] = Fluorescence spectra in phosphate buffer solution; type: physicochemical
Text: (§3) A novel series of water-soluble carbazole-based fluorophores has been designed and developed. […] Upon binding with Aβ peptides, there is about 8- to about 82-fold increase in fluorescence intensity concomitant with the substantial blue shifts (Δλ=14-22 nm) in the emission spectra of the fluorophores (FIG. 2A-2H). […] (e.g. Ffibril/FSLOH=81.5 vs. Fpeptide/FSLOH=6.3). Because of such strong increase in fluorescence, the signal-to-noise ratio is so high that imaging of single fibrils is possible. (FIG. 3A-3C) Compared to common commercial labeling dyes for Aβ such as Thioflavin-T and Congo Red, the carbazole-based fluorophores of the present invention provide an advantage of a wide range of excitation and emission tuning in visible to infra-red region (FIG. 4A-4B). Some of these molecules, e.g., SAM and SAOH, even emit at ˜[…] (FIG. 5A-5B), which can potentially be used for near infra-red fluorescence imaging. In addition to fluorescence titration, the binding of Aβ peptide and fibril with the carbazole-based fluorophores of the present invention were further confirmed by circular dichroism spectroscopy (FIG. 6A-6B), and electrospray ionization-mass spectrometry (ESI-MS). Total Internal Reflection Fluorescence Microscope (TIRFM) technique developed by us was used to investigate the inhibition effects of these functional fluorophores on Aβ fibril formation (FIG. 7A-7F). […]

SH-SY5Y neuronal cell [7] = assay: Protection of neuronal cells from Aβ oligomer and fibril toxicity; type: cell-based, Human; conditions: incubated for 2 and 6 hours
[8] = tested on: Aβ(1-40) and Aβ(1-42) peptides; assay: Fluorescence titration of the fluorophores with Aβ peptides; type: binding; conditions: Aβ peptide
Text: as §3

Aβ(1-40) fibrils = target: T2, Aβ(1-40) fibrils (Homo sapiens, UniProt P05067); assay: Fluorescence titration of the fluorophores with Aβ fibrils; type: binding
T2 construct: Aβ(1-40) fibrils prepared from Aβ40 with seed incubated at 37° C. for an hour in buffer
Text: as §3

T1 sequence (P05067 672-711): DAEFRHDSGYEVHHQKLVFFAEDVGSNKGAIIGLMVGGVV
T2 sequence (P05067 672-711): as above

## COCCOCCn1c2ccc(F)cc2c2cc(/C=C/c3cc[n+](CCO)c4ccccc34)ccc21 [F-SLOH, (E)-4-(2-(6-Fluoro-9-(2-(2-methoxyethoxy)ethyl)-9H-carbazol-3-yl)vinyl)-1-(2-hydroxyethyl)quinolin-1-ium chloride]
[1]
  inhibition of Aβ peptide aggregation and fibril growth: inhibit Aβpeptide aggregation and prevent fibril growth; also recorded: inhibit Aβ (1-40) peptide aggregation and prevent fibril growth; also recorded: potent Aβ aggregation inhibitors
SH-SY5Y neuronal cell [2]
  toxicity (in words): non-toxic
[3]
  protection from the neurotoxic effects of the Aβ species: protected from the neurotoxic effects of the Aβ species; also recorded: protective effect against the neurotoxic activities of the Aβ oligomers and fibrils
[4]
  reduction of ROS induced by the Aβ species: reduce the ROS induced by the Aβ species
[5]
  ability to penetrate the blood-brain barrier: show blood-brain permeability; also recorded: ability to cross the blood-brain barrier
Aβ plaques
  targeting of / selectivity towards Aβ plaques in brain: target the Aβ plaques

## Cn1c2ccccc2c2cc(/C=C/c3cc[n+](C)c4ccccc34)ccc21 [Me-SLM, (E)-1-methyl-4-(2-(9-methyl-9H-carbazol-3-yl)vinyl)quinolinium iodide]
[1]
  inhibition of Aβ peptide aggregation and fibril growth: inhibit Aβ peptide aggregation and prevent fibril growth

## COCCOCCn1c2ccccc2c2cc(/C=C/c3c4ccccc4[n+](C)c4ccccc34)ccc21.[I-] [SAM, (E)-9-(2-(9-(2-(2-methoxyethoxy)ethyl)-9H-carbazol-3-yl)vinyl)-10-methylacridinium iodide]
[1]
  inhibition of Aβ peptide aggregation and fibril growth: inhibit Aβ peptide aggregation and prevent fibril growth
[6]
  emission wavelength: ~760 nm

## COCCOCCn1c2ccccc2c2cc(/C=C/c3c4ccccc4[n+](CCO)c4ccccc34)ccc21.[I-] [SAOH, (E)-10-(2-hydroxyethyl)-9-(2-(9-(2-(2-methoxyethoxy)ethyl)-9H-carbazol-3-yl)vinyl)-acridinium iodide]
[1]
  inhibition of Aβ peptide aggregation and fibril growth: inhibition of Aβ fibril formation; also recorded: inhibit Aβ peptide aggregation and prevent fibril growth; also recorded: potent inhibitor of Aβ aggregation
SH-SY5Y neuronal cell [2]
  toxicity (in words): non-toxic
SH-SY5Y neuronal cell [7]
  protection from the neurotoxic effects of Aβ oligomers and fibrils: protected from the neurotoxic effects of the Aβ oligomers and fibrils; also recorded: protective effect against the neurotoxic activities of the Aβ oligomers and fibrils
[6]
  emission wavelength: ~760 nm

## COCCOCCn1c2ccccc2c2cc(/C=C/c3cc[n+](CC(N)=O)c4ccccc34)ccc21 [SLAD, (E)-1-(2-Amino-2-oxoethyl)-4-(2-(9-(2-(2-methoxyethoxy)ethyl)-9H-carbazol-3-yl)vinyl)quinolin-1-ium bromide]
[1]
  inhibition of Aβ peptide aggregation and fibril growth: inhibit Aβpeptide aggregation and prevent fibril growth; also recorded: inhibit Aβ (1-40) peptide aggregation and prevent fibril growth; also recorded: potent Aβ aggregation inhibitors
SH-SY5Y neuronal cell [2]
  toxicity (in words): non-toxic
[3]
  protection from the neurotoxic effects of the Aβ species: protected from the neurotoxic effects of the Aβ species; also recorded: protective effect against the neurotoxic activities of the Aβ oligomers and fibrils
[4]
  reduction of ROS induced by the Aβ species: reduce the ROS induced by the Aβ species
[5]
  ability to penetrate the blood-brain barrier: show blood-brain permeability; also recorded: ability to cross the blood-brain barrier
Aβ plaques
  targeting of / selectivity towards Aβ plaques in brain: target the Aβ plaques; also recorded: colocalization of fluorescence signals of SLAD and Aβ antibody

## CCOC(=O)C[n+]1ccc(/C=C/c2ccc3c(c2)c2ccccc2n3CCOCCOC)c2ccccc21 [SLAce, (E)-1-(2-Ethoxy-2-oxoethyl)-4-(2-(9-(2-(2-methoxyethoxy)ethyl)-9H-carbazol-3-yl)vinyl)quinolin-1-ium bromide]
[1]
  inhibition of Aβ peptide aggregation and fibril growth: inhibit Aβpeptide aggregation and prevent fibril growth; also recorded: inhibit Aβ (1-40) peptide aggregation and prevent fibril growth
[5]
  ability to penetrate the blood-brain barrier: show blood-brain permeability

## COCCOCCn1c2ccccc2c2cc(/C=C/c3cc[n+](CC(=O)O)c4ccccc34)ccc21.[Br-] [SLCOOH, (E)-1-(carboxymethyl)-4-(2-(9-(2-(2-methoxyethoxy)ethyl)-9H-carbazol-3-yl)vinyl)quinolin-1-ium bromide]
SH-SY5Y neuronal cell [2]
  toxicity (in words): non-toxic
[5]
  ability to penetrate the blood-brain barrier: BBB penetrable
Aβ plaques
  targeting of / selectivity towards Aβ plaques in brain: able to target the Aβ species in-vivo with high affinity

## CC[n+]1ccc(/C=C/c2ccc3c(c2)c2ccccc2n3CCOCCOC)c2ccccc21 [SLE, (E)-1-ethyl-4-(2-(9-(2-(2-methoxyethoxy)ethyl)-9H-carbazol-3-yl)vinyl)quinolinium bromide]
[1]
  inhibition of Aβ peptide aggregation and fibril growth: inhibit Aβ peptide aggregation and prevent fibril growth

## COCCOCCn1c2ccccc2c2cc(/C=C/c3cc[n+](CCOCCOC)c4ccccc34)ccc21 [SLG, (E)-1-(2-(2-methoxyethoxy)ethyl)-4-(2-(9-(2-(2-methoxyethoxy)ethyl)-9H-carbazol-3-yl)vinyl)quinolinium iodide]
[1]
  inhibition of Aβ peptide aggregation and fibril growth: inhibit Aβpeptide aggregation and prevent fibril growth; also recorded: inhibit Aβ (1-40) peptide aggregation and prevent fibril growth
[5]
  ability to penetrate the blood-brain barrier: show blood-brain permeability

## COCCOCCn1c2ccccc2c2cc(/C=C/c3cc[n+](CCO)c4ccccc34)ccc21 [SLOH, (E)-1-(2-hydroxyethyl)-4-(2-(9-(2-(2-methoxyethoxy)ethyl)-9H-carbazol-3-yl)vinyl)-quinolinium chloride]
[8]
  Fpeptide/FSLOH fluorescence enhancement: 6.3
Aβ(1-40) fibrils
  Ffibril/FSLOH fluorescence enhancement: 81.5
[1]; 50 μM added at different time points within 60 min incubation of Aβ monomer
  Aβ fibril growth (average fibril length) on addition of the compound: strongly arrests its fibril growth
[1]
  inhibition of Aβ peptide aggregation and fibril growth: inhibition of Aβ fibril formation; also recorded: inhibit Aβ peptide aggregation and prevent fibril growth; also recorded: potent inhibitor of Aβ aggregation
SH-SY5Y neuronal cell [2]
  toxicity (in words): non-toxic
SH-SY5Y neuronal cell [7]
  protection from the neurotoxic effects of Aβ oligomers and fibrils: protected from the neurotoxic effects of the Aβ oligomers and fibrils; also recorded: protective effect against the neurotoxic activities of the Aβ oligomers and fibrils
Aβ plaques
  targeting of / selectivity towards Aβ plaques in brain: colocalization of fluorescence signals of SLOH and ThT; also recorded: colocalization of fluorescence signals of SLOH and Aβ antibody; also recorded: selectivity of SLOH towards Aβ plaques

## COCCOCCn1c2ccccc2c2cc(/C=C/c3cc[n+](CCCO)c4ccccc34)ccc21 [SLOH-Pr, (E)-1-(3-hydroxypropyl)-4-(2-(9-(2-(2-methoxyethoxy)ethyl)-9H-carbazol-3-yl)vinyl)-quinolinium bromide]
[1]
  inhibition of Aβ peptide aggregation and fibril growth: inhibit Aβ peptide aggregation and prevent fibril growth

— patent US9795694B2, “Imaging beta-amyloid peptides aggregation” (Hong Kong Baptist University, priority 2014, dated 2017)
